Among the data in ChEMBL document CHEMBL2040728, “New substituted 4H-chromenes as anticancer agents” (Bioorg Med Chem Lett, 2012) are IC50 and inhibition values, retold here.

Molecules are shown by their SMILES. Calls of active or inactive are those of the source. No cut-off for these calls is given here. Bounds are passed on as bounds.

Test [1] in a line: Antiproliferative activity against human paclitaxel-resistant PC3-TxR cells after 96 hrs by SRB assay. It counts as functional, cell-based. (In general: Sulforhodamine B stains cellular protein and so reports cell mass.)
A short description of test [2]: Antiproliferative activity against human WM164 cells after 48 hrs by SRB assay. It counts as functional, cell-based. The note with it: WM164, 48 h.
The subject of another test is LNCaP. The experiment in a line: Antiproliferative activity against human LNCAP cells after 96 hrs by SRB assay. It counts as functional, cell-based.
For the next test, the system named is PC-3. The experiment in a line: Antiproliferative activity against human PC3 cells after 96 hrs by SRB assay. It counts as functional, cell-based. The note with it: PC-3, 96 h.
The next test has as its system A-375. The experiment in a line: Antiproliferative activity against human A375 cells after 48 hrs by SRB assay. It counts as functional, cell-based. The note with it: A-375, 48 h.
Test [3] is described as follows: Cytotoxicity against mouse primary astrocytes after 5 days by MTT assay. The note with it: Astrocyte, 120 h. Format: cell-based. (Formazan colour is commonly taken as a measure of viable cells.)
For another test, the system named is T98G. The experiment in a line: Antiproliferative activity against human T98G cells after 5 days by MTT assay. Format: functional, cell-based. The note with it: 120 h.
Test [4] is described as follows: Antiproliferative activity against human A172 cells after 5 days by MTT assay. The note with it: A 172, 120 h. Format: functional, cell-based.
A short description of test [5]: Antiproliferative activity against human LN18 cells after 5 days by MTT assay. Format: functional, cell-based. The note with it: LN-18, 120 h.
Test [6] can be described thus: Antiproliferative activity against human U87 cells after 5 days by MTT assay. The note with it: U-87 MG, 120 h. It counts as functional, cell-based, U-87MG ATCC.
The species named for test [7] is Bos taurus. The experiment in a line: Inhibition of bovine brain tubulin polymerization at 5 uM after 20 mins by spectrophotometric analysis relative to control.
The species entered for test [8] is Bos taurus. The experiment in a line: Inhibition of bovine brain tubulin polymerization at 10 uM after 20 mins by spectrophotometric analysis.
The species named for test [9] is Bos taurus. The experiment in a line: Inhibition of bovine brain tubulin polymerization at 20 uM after 20 mins by spectrophotometric analysis.
Test [10] is filed under the species Bos taurus. The experiment in a line: Inhibition of bovine brain tubulin polymerization after 20 mins by spectrophotometric analysis.

For the molecule `COc1ccc(C2C(C#N)=C(N)Oc3cc(N(C)C)ccc32)c2ccccc12` (centres undefined), the concentration for half-maximal inhibition (IC50) is 0.53 µM in [1]; 0.49 µM in test [2]; 0.76 µM in the test with LNCaP; 0.43 µM in the test with PC-3; 0.44 µM with A-375.

With `Cn1nnc2c(C(N)=O)ncn2c1=O` [TEMOZOLOMIDE], the 50% inhibitory concentration (IC50) was greater than 1000 µM in test [3]; 570 µM in the test with T98G; 65 µM in [4]; 390 µM in [5]; 49 µM in test [6].

Take `CC(=O)O[C@H]1C(=O)[C@@]2(C)[C@H]([C@H](OC(=O)c3ccccc3)[C@]3(O)C[C@H](OC(=O)[C@H](O)[C@@H](NC(=O)c4ccccc4)c4ccccc4)C(C)=C1C3(C)C)[C@]1(OC(C)=O)CO[C@@H]1C[C@@H]2O`: the inhibition entry in the test listed under Bos taurus [7] is “inactive”.

For the molecule `CN(C)c1ccc2c(c1)OC(N)=C(C#N)C2c1ccc(N(C)C)c2ccccc12` (centres undefined), the IC50 in [1] turned out to be 0.23 µM; in test [2], 0.16 µM; in the test on LNCaP, 0.14 µM; in test [3] it was 2.03 µM; in the test on PC-3 it was 0.22 µM; in the test with A-375, 0.08 µM. The 50% inhibitory concentration (IC50) in the test with T98G is 0.0125 µM; in test [4] it was 0.0074 µM; in [5], 0.0133 µM; in test [6], 0.0206 µM. For the same molecule, the inhibition in the test filed under Bos taurus [8] was 29%; in the test filed under Bos taurus [9] it was 68%; in the test listed under Bos taurus [10] it was “Dose-dependent effect”.

A word on the IC50: it is the concentration that inhibits the measured activity by half. High values mean a need for much substance, low ones inhibition by little substance. As a reminder, the inhibition is the change of the read-out against control, counted positive when it falls.
